Source: patent publication US12371454B2, “Cyclic peptide compound having Kras inhibitory action” (priority 2019, dated 2025)
Starred links: 1 amine or outer side, 2 acyl side, 3 side chain; linkers in the order of their positions; H or OH if unused. Positions of bridges follow the written chain, without caps; N, C: chain ends. Non-standard residues stand in square brackets, D forms with d. Residues, ends and D or L forms follow the SMILES beside them. *: point of attachment. hPhe(3,5-F2-4-CF3) = N[C@@H](CCc1cc(F)c(C(F)(F)F)c(F)c1)C(=O)O; hPhe(3-Cl-4-CF3) = N[C@@H](CCc1ccc(C(F)(F)F)c(Cl)c1)C(=O)O; NMePhe(4-CF3) = CN[C@@H](Cc1ccc(C(F)(F)F)cc1)C(=O)O; Piperazinyl(4-(3-oxetanyl)) = C1OCC1N1CCN(*)CC1; NMeAbu(4,4,4-F3) = CN[C@@H](CC(F)(F)F)C(=O)O; X18 = Cc1ccc(Br)cc1C[C@H](N[*:1])C(=O)[*:2]; Phe(2,6-F2) = N[C@@H](Cc1c(F)cccc1F)C(=O)O; Phe(3-I) = N[C@@H](Cc1cccc(I)c1)C(=O)O; Pro(4,4-F2) = O=C(O)[C@@H]1CC(F)(F)CN1; NMeY = CN[C@@H](Cc1ccc(O)cc1)C(=O)O; NMeCha = CN[C@@H](CC1CCCCC1)C(=O)O; NMeChg = CN[C@H](C(=O)O)C1CCCCC1; NMeF = CN[C@@H](Cc1ccccc1)C(=O)O; NMeI = CC[C@H](C)[C@H](NC)C(=O)O; NMeD = CN[C@@H](CC(=O)O)C(=O)O; NMeL = CN[C@@H](CC(C)C)C(=O)O; d(β3hP) = O=C(O)C[C@H]1CCCN1; NMeAbu = CC[C@H](NC)C(=O)O; Morpholide = C1CN(*)CCO1; NMeA = CN[C@@H](C)C(=O)O; NMeAib = CNC(C)(C)C(=O)O; Nle = CCCC[C@H](N)C(=O)O; Piperidide = C1CCN(*)CC1; Pra = C#CC[C@H](N)C(=O)O; Pyrrolidide = C1CCN(*)C1; Ac5c = NC1(C(=O)O)CCCC1; Aze = O=C(O)[C@@H]1CCN1; Ac4c = NC1(C(=O)O)CCC1; Sar = CNCC(=O)O

biological target: T1, Kras and SOS1 (biotin-tagged human Kras loaded with GDP, His-tagged human SOS1) (Homo sapiens, UniProt P01116, G12D); test: Protein-protein interaction inhibition between Kras and SOS1 (KrasGl2D-SOS PPI) using AlphaScreen; format: binding; conditions: AlphaScreen; biotin-tagged human Kras loaded with GDP, His-tagged human SOS1; read-out: KRAS G12D-SOS PPI IC50
T1 construct: made in house; host or cells: E. coli (stated for Kras only)
Summary of the method: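 Kras was produced in E. coli, purified, then loaded with GDP. It was paired via streptavidin acceptor beads with His-SOS1 held on nickel donor beads, and proximity signal at 520-620 nm was read after 680 nm illumination.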

T1 sequence (P01116 1-188 isoform P01116-2 G12D): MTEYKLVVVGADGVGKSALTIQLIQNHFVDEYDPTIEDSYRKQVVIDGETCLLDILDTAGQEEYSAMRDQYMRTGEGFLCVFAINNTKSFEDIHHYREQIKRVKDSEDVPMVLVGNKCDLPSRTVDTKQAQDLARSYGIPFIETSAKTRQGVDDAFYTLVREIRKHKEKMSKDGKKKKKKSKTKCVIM

Structure (SMILES)	IC50 [nM]
C#CC[C@@H]1NC(=O)[C@H](Cc2cccc(I)c2)NC(=O)CN(C)C(=O)[C@H](Cc2ccccc2)N(C)C(=O)CN(C)C(=O)CN(C)C(=O)[C@H]([C@@H](C)CC)NC(=O)[C@H](CC(C)C)N(C)C(=O)C[C@@H](C(=O)N2CCCCC2)N(C)C(=O)[C@H](CC(C)C)NC(=O)C(C)(C)N(C)C1=O [Compound 1184] ([NMeL]I[Sar][Sar][NMeF][Sar][Phe(3-I)][Pra][NMeAib]L[NMeD]-Piperidide; lactam N-11)	130
CC[C@H](C)[C@@H]1NC(=O)[C@H](CC(C)C)N(C)C(=O)C[C@H]2CCCN2C(=O)[C@H](C2CCCCC2)N(C)C(=O)C2(CCCC2)NC(=O)[C@@H]2CCCN2C(=O)[C@H](CCc2ccc(C(F)(F)F)c(Cl)c2)NC(=O)CN(C)C(=O)[C@H](CC2CCCCC2)N(C)C(=O)CN(C)C(=O)CN(C)C1=O [Compound 1185] (cyclo([Ac5c][NMeChg][d(β3hP)][NMeL]I[Sar][Sar][NMeCha][Sar][hPhe(3-Cl-4-CF3)]P))	11
CC[C@H](C)[C@@H]1NC(=O)[C@H](CC(C)C)N(C)C(=O)C[C@@H](C(=O)N2CCCCC2)N(C)C(=O)[C@H](C2CCCCC2)N(C)C(=O)C2(CCCC2)NC(=O)[C@@H]2CCCN2C(=O)[C@H](CCc2ccc(C(F)(F)F)c(Cl)c2)NC(=O)CN(C)C(=O)[C@H](CC2CCCCC2)N(C)C(=O)[C@H](C)N(C)C(=O)CN(C)C1=O [Compound 1186] ([NMeL]I[Sar][NMeA][NMeCha][Sar][hPhe(3-Cl-4-CF3)]P[Ac5c][NMeChg][NMeD]-Piperidide; lactam N-11)	8.6
CCCC[C@@H]1NC(=O)[C@H](Cc2c(F)cccc2F)NC(=O)CN(C)C(=O)[C@H](Cc2ccc(OC)cc2)N(C)C(=O)[C@@H]2CCN2C(=O)[C@H](C)N(C)C(=O)[C@H]([C@@H](C)CC)NC(=O)[C@H](CC)N(C)C(=O)C[C@@H](C(=O)N2CCCCC2)N(C)C(=O)[C@H](CC(C)C)NC(=O)C(C)(C)N(C)C1=O [Compound 1187] ([NMeAbu]I[NMeA][Aze][NMeY](Me)[Sar][Phe(2,6-F2)][Nle][NMeAib]L[NMeD]-Piperidide; lactam N-11)	99
CC[C@H](C)[C@@H]1NC(=O)[C@H](CC(C)C)N(C)C(=O)C[C@@H](C(=O)N2CCN(C3COC3)CC2)NC(=O)[C@H]([C@@H](C)CC)N(C)C(=O)C2(CCCC2)NC(=O)[C@@H]2CCCN2C(=O)[C@H](CCc2ccc(C(F)(F)F)c(Cl)c2)NC(=O)CN(C)C(=O)[C@H](CC2CCCCC2)N(C)C(=O)CN(C)C(=O)CN(C)C1=O [Compound 1191] ([NMeL]I[Sar][Sar][NMeCha][Sar][hPhe(3-Cl-4-CF3)]P[Ac5c][NMeI]D-{Piperazinyl(4-(3-oxetanyl))}; lactam N-11)	6.7
CC[C@H](C)[C@@H]1NC(=O)[C@H](CC(C)C)N(C)C(=O)C[C@@H](C(=O)N2CCCC2)N(C)C(=O)[C@H](C2CCCCC2)N(C)C(=O)C2(CCC2)NC(=O)[C@@H]2CC(F)(F)CN2C(=O)[C@H](CCc2cc(F)c(C(F)(F)F)c(F)c2)NC(=O)CN(C)C(=O)[C@H](CC2CCCCC2)N(C)C(=O)CN(C)C(=O)CN(C)C1=O [Compound 1192] ([NMeL]I[Sar][Sar][NMeCha][Sar][hPhe(3,5-F2-4-CF3)][Pro(4,4-F2)][Ac4c][NMeChg][NMeD]-Pyrrolidide; lactam N-11)	0.39
CC[C@H](C)[C@@H]1NC(=O)[C@H](CC(C)C)N(C)C(=O)C[C@@H](C(=O)N2CCOCC2)N(C)C(=O)[C@H](C2CCCCC2)N(C)C(=O)C2(CCCC2)NC(=O)[C@@H]2CC(F)(F)CN2C(=O)[C@H](CCc2ccc(C(F)(F)F)c(Cl)c2)NC(=O)CN(C)C(=O)[C@H](CC2CCCCC2)N(C)C(=O)CN(C)C(=O)CN(C)C1=O [Compound 1194] ([NMeL]I[Sar][Sar][NMeCha][Sar][hPhe(3-Cl-4-CF3)][Pro(4,4-F2)][Ac5c][NMeChg][NMeD]-Morpholide; lactam N-11)	0.52
CCCC[C@@H]1NC(=O)[C@H](Cc2cc(Br)ccc2C)NC(=O)CN(C)C(=O)[C@H](Cc2ccc(OC)cc2)N(C)C(=O)[C@@H]2CCN2C(=O)[C@H](C)N(C)C(=O)[C@H]([C@@H](C)CC)NC(=O)[C@H](CC)N(C)C(=O)C[C@@H](C(=O)N2CCCCC2)N(C)C(=O)[C@H](CC(C)C)NC(=O)C(C)(C)N(C)C1=O [Compound 1195] ([NMeAbu]I[NMeA][Aze][NMeY](Me)[Sar][X18][Nle][NMeAib]L[NMeD]-Piperidide; lactam N-11)	38
CC[C@H](C)[C@@H]1NC(=O)[C@H](CC(F)(F)F)N(C)C(=O)C[C@@H](C(=O)N2CCCC2)N(C)C(=O)[C@H](C2CCCCC2)N(C)C(=O)C2(CCCC2)NC(=O)[C@@H]2CC(F)(F)CN2C(=O)[C@H](CCc2ccc(C(F)(F)F)c(Cl)c2)NC(=O)CN(C)C(=O)[C@H](Cc2ccc(C(F)(F)F)cc2)N(C)C(=O)CN(C)C(=O)CN(C)C1=O [Compound 1196] ([NMeAbu(4,4,4-F3)]I[Sar][Sar][NMePhe(4-CF3)][Sar][hPhe(3-Cl-4-CF3)][Pro(4,4-F2)][Ac5c][NMeChg][NMeD]-Pyrrolidide; lactam N-11)	0.48
